The text below walks through data of patent US20140005163A1 (NOVARTIS AG, priority 2010, published 2014).

As usually defined, the IC50 is the concentration at which inhibition is half-maximal.

Test [1] relates to PKB Ser473 phosphorylation in Rat1-myr-HA-p110 beta cells. Put plainly: Reverse protein array assay, PKB Ser473 phosphorylation in Rat1-myr-p110 beta cells. It counts as cell-based. Conditions: 0.5 h, pAkt Ser473, 30 minutes incubation, read-out: p-PKB IC50. In short, it runs like this: (§1)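 After at least 20 h of culture, the p110 isoform-transfected Rat1 lines receive compound in an 8-step dilution series, keeping DMSO at 0.2%, for 30 minutes. Cells are then lysed and lysates arrayed on chips for fluorescence detection of Ser473-phosphorylated PKB.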

For test [2], the system named is S6 Ribosomal Protein phosphorylation Ser235/236 in TSC1 null mouse embryo fibroblast (MEF) cells. Put plainly: Reverse protein array assay, S6 Ribosomal Protein phosphorylation Ser235/236 in TSC1 null MEF cells. It is filed as cell-based. Conditions: 1 h, pS6 ribosomal protein Ser235/236, 60 minutes incubation, read-out: p-S6 IC50. In short, it runs like this: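 TSC1−/− MEFs, seeded and held ≥20 h at 37 °C/5% CO2, were exposed to 8-step serial compound dilutions (0.02% DMSO final; DMSO vehicle control) for 60 min at 37 °C. Cells were then lysed on ice for 10 min and lysates spotted onto reverse protein array chips.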

Test [3] deals with T1, PI3K delta (Homo sapiens, UniProt O00329).
T1 construct: for the full-length p110-d subunit are generated and fused by overlapping PCR; p85(iSH2) fusion partner (see partner chain) (N); His tag (C); made in house; host or cells: baculovirus; Tn5 (Trichoplusia ni) or TiniPro insect cells
Put plainly: PI3K delta kinase assay (Kinase-Glo luminescence). It counts as biochemical. Summed up: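 ATP depletion was measured by Kinase-Glo luminescence after a 60-minute room-temperature reaction containing 1 μM ATP, 10 μg/mL PI and 10 nM His-tagged p85(iSH2)-linker-p110δ (BV-1060). Buffer: Tris pH 7.5, 3 mM MgCl2, 50 mM NaCl, 0.05% CHAPS, 1 mM DTT. IC50 values came from four-parameter fits over eight concentrations.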

The test system of test [4] is PKB Ser473 phosphorylation in Rat1-myr-HA-p110 alpha cells. Put plainly: Reverse protein array assay, PKB Ser473 phosphorylation in Rat1-myr-p110 alpha cells. Particulars: 0.5 h, pAkt Ser473, 30 minutes compound incubation, read-out: p-PKB IC50. It counts as cell-based. In short, it runs like this:
as §1

T1 sequence (O00329 with tags, fused parts or gaps limits assumed): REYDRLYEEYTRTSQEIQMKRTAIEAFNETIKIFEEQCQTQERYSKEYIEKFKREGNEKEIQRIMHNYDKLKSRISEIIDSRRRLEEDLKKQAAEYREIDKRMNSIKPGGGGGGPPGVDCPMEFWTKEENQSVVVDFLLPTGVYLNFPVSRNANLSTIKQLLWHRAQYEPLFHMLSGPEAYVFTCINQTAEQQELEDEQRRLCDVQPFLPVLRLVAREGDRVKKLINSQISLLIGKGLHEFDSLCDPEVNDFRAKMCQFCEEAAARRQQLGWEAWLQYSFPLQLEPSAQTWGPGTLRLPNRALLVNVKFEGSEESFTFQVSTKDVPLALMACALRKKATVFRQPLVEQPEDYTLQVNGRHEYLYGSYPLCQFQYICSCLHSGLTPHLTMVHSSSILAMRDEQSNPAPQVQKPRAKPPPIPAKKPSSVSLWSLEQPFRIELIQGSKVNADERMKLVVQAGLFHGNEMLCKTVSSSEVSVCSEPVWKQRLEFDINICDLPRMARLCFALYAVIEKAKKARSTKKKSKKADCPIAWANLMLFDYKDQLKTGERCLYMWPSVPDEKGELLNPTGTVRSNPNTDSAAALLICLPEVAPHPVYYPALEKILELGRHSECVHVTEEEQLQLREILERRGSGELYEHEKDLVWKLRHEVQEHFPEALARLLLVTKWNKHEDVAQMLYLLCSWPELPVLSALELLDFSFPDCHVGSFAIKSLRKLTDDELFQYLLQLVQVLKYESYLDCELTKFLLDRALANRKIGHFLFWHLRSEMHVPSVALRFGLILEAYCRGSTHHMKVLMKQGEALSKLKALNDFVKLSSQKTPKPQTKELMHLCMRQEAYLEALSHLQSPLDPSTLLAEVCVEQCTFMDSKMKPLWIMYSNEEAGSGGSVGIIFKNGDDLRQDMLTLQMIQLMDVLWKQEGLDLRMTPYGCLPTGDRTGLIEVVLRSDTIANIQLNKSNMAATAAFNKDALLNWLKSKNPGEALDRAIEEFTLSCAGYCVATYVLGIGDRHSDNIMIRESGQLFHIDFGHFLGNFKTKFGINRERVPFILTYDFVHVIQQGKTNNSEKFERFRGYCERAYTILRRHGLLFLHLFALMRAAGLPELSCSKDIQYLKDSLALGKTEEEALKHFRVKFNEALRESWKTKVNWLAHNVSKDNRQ

Consider `Cc1nn(C)cc1-n1c(=O)n(C)c2cnc3ccc(-c4cc(O)cc(C(F)(F)F)c4)cc3c21` [Example 34, 1-(1,3-Dimethyl-1H-pyrazol-4-yl)-8-(3-hydroxy-5-trifluoromethyl-phenyl)-3-methyl-1,3-dihydro-imidazo[4,5-c]quinolin-2-one], for which the IC50 came out at 153 nM in test [1], 3.56 nM in test [2], 7 nM in test [3] and 138 nM in test [4].
`Cc1nn(C)cc1-n1c(=O)n(C)c2cnc3ccc(-c4cnc5[nH]ccc5c4)cc3c21` [Example 36, 1-(1,3-dimethyl-1H-pyrazol-4-yl)-3-methyl-8-(1H-pyrrolo[2,3-b]pyridin-5-yl)-1,3-dihydro-imidazo[4,5-c]quinolin-2-one]: the 50% inhibitory concentration (IC50) is 6 nM in test [1], less than 0.5 nM in test [2], 24 nM in test [3] and 5 nM in test [4].
The like results for `Cc1nn(C)cc1-n1c(=O)n(C)c2cnc3ccc(-c4ccc(OCC5CC5)nc4)cc3c21` [Example 42, 8-(6-Cyclopropylmethoxy-pyridin-3-yl)-1-(1,3-dimethyl-1H-pyrazol-4-yl)-3-methyl-1,3-dihydro-imidazo[4,5-c]quinolin-2-one] were, in that order, 66 nM, 3 nM, 441 nM and 36 nM.
Regarding `CNC(=O)c1ccc(-c2ccc3ncc4c(c3c2)n(-c2cn(C)nc2Cl)c(=O)n4C)cc1` [Example 43.2, 4-[1-(3-Chloro-1-methyl-1H-pyrazol-4-yl)-3-methyl-2-oxo-2,3-dihydro-1H-imidazol[4,5-c]quinolin-8-yl]-N-methyl-benzamide], the 50% inhibitory concentration (IC50) in test [1] was less than 5 nM; in test [2], less than 0.5 nM; in test [3], 34 nM; in test [4], 6 nM.
On to `Cc1nn(C)cc1-n1c(=O)n(C)c2cnc3ccc(-c4ccc5c(c4)CCN5C)cc3c21` [Example 50, 1-(1,3-Dimethyl-1H-pyrazol-4-yl)-3-methyl-8-(1-methyl-2,3-dihydro-1H-indol-5-yl)-1,3-dihydro-imidazo[4,5-c]quinolin-2-one], for which the 50% inhibitory concentration (IC50) was 119 nM in test [1], 91 nM in test [2], 371 nM in test [3] and 72 nM in test [4].
Regarding `CCCOc1ccc(-c2ccc3ncc4c(c3c2)n(-c2cn(C)nc2C)c(=O)n4C)cn1` [Example 55, 1-(1,3-Dimethyl-1H-pyrazol-4-yl)-3-methyl-8-(6-propoxy-pyridin-3-yl)-1,3-dihydro-imidazo[4,5-c]quinolin-2-one], the half-inhibitory concentration (IC50) was found to be 21 nM in test [1], 18 nM in test [2], 132 nM in test [3] and 20 nM in test [4].
The like results for `CCOc1cccc(-c2ccc3ncc4c(c3c2)n(-c2cn(C)nc2C)c(=O)n4C)c1` [Example 57, 1-(1,3-Dimethyl-1H-pyrazol-4-yl)-8-(3-ethoxy-phenyl)-3-methyl-1,3-dihydro-imidazo[4,5-c]quinolin-2-one] were, in that order, 106 nM, 5 nM, 215 nM and 51 nM.
For `COc1ncc(-c2ccc3ncc4c(c3c2)n(-c2cn(C)nc2C)c(=O)n4C)cc1N(C)C(C)=O` [Example 62, N-{5-[1-(1,3-Dimethyl-1H-pyrazol-4-yl)-3-methyl-2-oxo-2,3-dihydro-1H-imidazo[4,5-c]quinolin-8-yl]-2-methoxy-pyridin-3-yl}-N-methyl-acetamide], in that order: 516 nM, 98 nM, 16 nM and 469 nM.
Turning to `CNc1ncc(-c2ccc3ncc4c(c3c2)n(-c2c(C)nn(C)c2C)c(=O)n4C)cn1` [Example 80.2], the IC50 in test [1] worked out at 196 nM; in test [2], 28 nM; in test [3], 25 nM; in test [4], 108 nM.
For the compound `Cc1nn(C)cc1-n1c(=O)n(C)c2cnc3ccc(-c4cnc(N)nc4)cc3c21` [Example 81.1, 8-(2-Amino-pyrimidin-5-yl)-1-(1,3-dimethyl-1H-pyrazol-4-yl)-3-methyl-1,3-dihydro-imidazo[4,5-c]quinolin-2-one], the half-inhibitory concentration (IC50) in test [1] turned out to be 18 nM; in test [2] it was 1.69 nM; in test [3], 39 nM; in test [4], 13 nM.
For the compound `Cc1nn(C)cc1-n1c(=O)n(C)c2cnc3ccc(-c4cccc(OC(C)C)c4F)cc3c21` [Example 83, 1-(1,3-Dimethyl-1H-pyrazol-4-yl)-8-(2-fluoro-3-isopropoxy-phenyl)-3-methyl-1,3-dihydro-imidazo[4,5-c]quinolin-2-one], the IC50 stood at 353 nM in test [1], 38 nM in test [2], 234 nM in test [3] and 197 nM in test [4].
With `COCCOc1cc(-c2ccc3ncc4c(c3c2)n(-c2cn(C)nc2C)c(=O)n4C)cnc1C` [Example 86.2, 1-(1,3-Dimethyl-1H-pyrazol-4-yl)-8-[5-(2-methoxy-ethoxy)-6-methyl-pyridin-3-yl]-3-methyl-1,3-dihydro-imidazo[4,5-c]quinolin-2-one], the half-maximal inhibitory concentration (IC50) in test [1] is 53 nM; in test [2], 5 nM; in test [3] it was 6 nM; in test [4] it was 33 nM.
Take `CCNc1cc(-c2ccc3ncc4c(c3c2)n(-c2c(C)nn(CCOC)c2C)c(=O)n4C)cnc1C` [Example 87.4, 8-(5-Ethylamino-6-methyl-pyridin-3-yl)-1-[1-(2-methoxy-ethyl)-3,5-dimethyl-1H-pyrazol-4-yl]-3-methyl-1,3-dihydro-imidazo[4,5-c]quinolin-2-one]: the IC50 in test [1] worked out at 85 nM; in test [2], 41 nM; in test [3], 17 nM; in test [4], 33 nM.
Turning to `Cc1ncc(-c2ccc3ncc4c(c3c2)n(-c2cn(C)nc2C)c(=O)n4C)cc1N` [Example 88.2, 8-(5-Amino-6-methyl-pyridin-3-yl)-1-(1,3-dimethyl-1H-pyrazol-4-yl)-3-methyl-1,3-dihydro-imidazo[4,5-c]quinolin-2-one], the IC50 in test [1] worked out at 28 nM; in test [2], 7 nM; in test [3], 8 nM; in test [4] it was 24 nM.
`CCNc1cc(-c2ccc3ncc4c(c3c2)n(-c2cn(C)nc2Cl)c(=O)n4C)cnc1OC` [Example 90.1, 1-(3-Chloro-1-methyl-1H-pyrazol-4-yl)-8-(5-ethylamino-6-methoxy-pyridin-3-yl)-3-methyl-1,3-dihydro-imidazo[4,5-c]quinolin-2-one]: the IC50 in test [1] was less than 5 nM; in test [2], less than 0.5 nM; in test [3], 31 nM; in test [4], less than 5 nM.
Turning to `Cc1nn(C)cc1-n1c(=O)n(C)c2cnc3ccc(-c4ccc(N5CCN(C)CC5)nc4)cc3c21` [Example 96, 1-(1,3-Dimethyl-1H-pyrazol-4-yl)-3-methyl-8-[6-(4-methyl-piperazin-1-yl)-pyridin-3-yl]-1,3-dihydro-imidazo[4,5-c]quinolin-2-one], the IC50 in test [1] came to 37 nM; in test [2], 7 nM; in test [3] it was 199 nM; in test [4] it was 12 nM.
For `COc1ccc(-c2ccc3ncc4c(c3c2)n(-c2cn(CC(=O)N(C)C)nc2C)c(=O)n4C)cn1` [Example 102, 2-{4-[8-(6-Methoxy-pyridin-3-yl)-3-methyl-2-oxo-2,3-dihydro-imidazo[4,5-c]quinolin-1-yl]-3-methyl-pyrazol-1-yl}-N,N-dimethyl-acetamide], in that order: 34 nM, less than 5 nM, 26 nM and 33 nM.
In the case of `CCn1cc(-n2c(=O)n(C)c3cnc4ccc(-c5ccc(COC)nc5)cc4c32)c(C)n1` [Example 104, 1-(1-Ethyl-3-methyl-1H-pyrazol-4-yl)-8-(6-methoxymethyl-pyridin-3-yl)-3-methyl-1,3-dihydro-imidazo[4,5-c]quinolin-2-one], the IC50 in test [1] turned out to be 37 nM; in test [2] it was 39 nM; in test [3] it was 141 nM; in test [4], 71 nM.
With `Cc1nn(C(C)C)cc1-n1c(=O)n(C)c2cnc3ccc(-c4ccc(C(N)=O)nc4)cc3c21` [Example 112, 5-[1-(1-Isopropyl-3-methyl-1H-pyrazol-4-yl)-3-methyl-2-oxo-2,3-dihydro-1H-imidazo[4,5-c]quinolin-8-yl]-pyridine-2-carboxylic acid amide], the half-maximal inhibitory concentration (IC50) in test [1] was found to be 73 nM; in test [2], 60 nM; in test [3], 209 nM; in test [4] it was 24 nM.
On to `Cc1nn(C)cc1-n1c(=O)n(C)c2cnc3ccc(-c4cccc(N(C)S(C)(=O)=O)c4)cc3c21` [Example 117, N-{3-[1-(1,3-Dimethyl-1H-pyrazol-4-yl)-3-methyl-2-oxo-2,3-dihydro-1H-imidazo[4,5-c]quinolin-8-yl]-phenyl}-N-methyl-methanesulfonamide], for which the IC50 in test [1] worked out at 659 nM; in test [2], 154 nM; in test [3], 147 nM; in test [4], 282 nM.
